Measured values reported in patent US9695155B2, “Herbicidal substituted pyrimidinyloxy benzene compounds” (E. I. DU PONT DE NEMOURS AND COMPANY, priority 2013, dated 2017).

Key:
[1] = system: chickweed; assay: Test D postemergence; assay type: in vivo, Stellaria media
Source text: (§1) Seeds of plant species selected from bluegrass (annual bluegrass, Poa annua), blackgrass (Alopecurus myosuroides), canarygrass (littleseed canarygrass, Phalaris minor), chickweed (common chickweed, Stellaria media), galium (catchweed bedstraw, Galium aparine), bromegrass, downy (downy bromegrass, Bromus tectorum), field poppy (Papaver rhoeas), field violet (Viola arvensis), green foxtail (Setaria viridis), deadnettle (henbit deadnettle, Lamium amplexicaule), Italian ryegrass (Lolium multiflorum), kochia (Kochia scoparia), lambsquarters (Chenopodium album), oilseed rape (Brassica napus), pigweed (Amaranthus retroflexus), chamomile (scentless chamomile, Matricaria inodora), Russian thistle (Salsola kali), speedwell (bird's-eye speedwell, Veronica persica), spring barley (Hordeum vulgare), spring wheat (Triticum aestivum), wild buckwheat (Polygonum convolvulus), wild mustard (Sinapis arvensis), wild oat (Avena fatua), wild radish (Raphanus raphanistrum), windgrass (Apera spica-venti), winter barley (Hordeum vulgare), and winter wheat (Triticum aestivum) were planted into a silt loam soil and treated preemergence with test chemicals formulated in a non-phytotoxic solvent mixture which included a surfactant.
(§2) At the same time, these species were planted in pots containing Redi-Earth® planting medium (Scotts Company, 14111 Scottslawn Road, Marysville, Ohio 43041) comprising spaghnum peat moss, vermiculite, wetting agent and starter nutrients and treated with postemergence applications of the test chemicals formulated in the same manner. Plants ranged in height from 2 to 18 cm (1- to 4-leaf stage). Treated plants and controls were maintained in a controlled growth environment for 7 to 21 days after which time all species were compared to controls and visually evaluated. Plant response ratings, summarized in Table D, are based on a scale of 0 to 100 where 0 is no effect and 100 is complete control. A dash (-) response means no test result.

[2] = system: wild oat; assay: Test D postemergence; assay type: in vivo, Avena fatua
Source text: as §1, §2

[3] = system: wild buckwheat; assay: Test D preemergence; assay type: in vivo, Polygonum convolvulus
Source text: as §1, §2

[4] = system: chickweed; assay: Test D preemergence; assay type: in vivo, Stellaria media
Source text: as §1, §2

[5] = system: pigweed; assay: Test D preemergence; assay type: in vivo, Amaranthus retroflexus
Source text: as §1, §2

[6] = system: winter barley; assay: Test D postemergence; assay type: in vivo, Hordeum vulgare; conditions: Postemergence, scale 0 to 100 (0 no effect, 100 complete control)
Source text: as §1, §2

[7] = system: spring barley; assay: Test D postemergence; assay type: in vivo, Hordeum vulgare; conditions: Postemergence, scale 0 to 100 (0 no effect, 100 complete control)
Source text: as §1, §2

[8] = system: winter barley; assay: Test D preemergence; assay type: in vivo, Hordeum vulgare
Source text: as §1, §2

[9] = system: spring barley; assay: Test D preemergence; assay type: in vivo, Hordeum vulgare
Source text: as §1, §2

[10] = system: field poppy; assay: Test D preemergence; assay type: in vivo, Papaver rhoeas
Source text: as §1, §2

[11] = 62 g ai/ha, scale 0 to 100 (0 no effect, 100 complete control)
[12] = 125 g ai/ha, scale 0 to 100 (0 no effect, 100 complete control)
[13] = 250 g ai/ha, scale 0 to 100 (0 no effect, 100 complete control)
[14] = 31 g ai/ha, scale 0 (no effect) to 100 (complete control)

N#Cc1cccc(Oc2ncc(Cl)cn2)c1-n1cc(-n2ccc(C(F)(F)F)n2)cn1 [Compound 284]
Plant response rating, Chickweed ([1]; 31 g ai/ha, scale 0-100): 80 | Plant response rating, Chickweed [1, 11]: 85 | Plant response rating, Chickweed [1, 12]: 90 | Plant response rating, Chickweed [1, 13]: 100 | Plant response rating, Oat, Wild ([2]; 31 g ai/ha, scale 0-100): 20 | Plant response rating, Oat, Wild [2, 11]: 25 | Plant response rating, Oat, Wild [2, 12]: 25 | Plant response rating, Oat, Wild [2, 13]: 35 | Plant response rating, Buckwheat, Wild [3, 14]: 10 | Plant response rating, Buckwheat, Wild ([3]; 62 g ai/ha, scale 0-100): 20 | Plant response rating, Buckwheat, Wild ([3]; 125 g ai/ha, scale 0-100): 70 | Plant response rating, Buckwheat, Wild ([3]; 250 g ai/ha, scale 0-100): 100 | Plant response rating, Chickweed [4, 14]: 10 | Plant response rating, Chickweed ([4]; 62 g ai/ha, scale 0-100): 15 | Plant response rating, Chickweed ([4]; 125 g ai/ha, scale 0-100): 20 | Plant response rating, Chickweed ([4]; 250 g ai/ha, scale 0-100): 30 | Plant response rating, Pigweed [5, 14]: 75 | Plant response rating, Pigweed ([5]; 125 g ai/ha, scale 0-100): 100 | Plant response rating, Pigweed ([5]; 250 g ai/ha, scale 0-100): 100 | Plant response rating, Barley, Winter ([6]; 62 g ai/ha): 15 | Plant response rating, Barley, Winter ([6]; 31 g ai/ha): 15 | Plant response rating, Barley, Winter ([6]; 125 g ai/ha): 20 | Plant response rating, Barley, Winter ([6]; 250 g ai/ha): 25 | Plant response rating, Barley, Spring ([7]; 62 g ai/ha): 15 | Plant response rating, Barley, Spring ([7]; 31 g ai/ha): 5 | Plant response rating, Barley, Spring ([7]; 125 g ai/ha): 20 | Plant response rating, Barley, Spring ([7]; 250 g ai/ha): 25 | Plant response rating, Barley, Winter [8, 14]: 0 | Plant response rating, Barley, Winter ([8]; 62 g ai/ha, scale 0-100): 0 | Plant response rating, Barley, Winter ([8]; 125 g ai/ha, scale 0-100): 15 | Plant response rating, Barley, Winter ([8]; 250 g ai/ha, scale 0-100): 20 | Plant response rating, Barley, Spring [9, 14]: 10 | Plant response rating, Barley, Spring ([9]; 62 g ai/ha, scale 0-100): 15 | Plant response rating, Barley, Spring ([9]; 125 g ai/ha, scale 0-100): 25 | Plant response rating, Barley, Spring ([9]; 250 g ai/ha, scale 0-100): 35 | Plant response rating, Field Poppy [10, 14]: 100 | Plant response rating, Field Poppy ([10]; 62 g ai/ha, scale 0-100): 100 | Plant response rating, Field Poppy ([10]; 125 g ai/ha, scale 0-100): 100 | Plant response rating, Field Poppy ([10]; 250 g ai/ha, scale 0-100): 100

Fc1cccc(Oc2ncc(Cl)cn2)c1-n1cc(Br)cn1 [Compound 178, 2-[2-(4-bromo-1H-pyrazol-1-yl)-3-fluorophenoxy]-5-chloropyrimidine]
pest or weed control at 16 g/ha ([1]; Stellaria media, post-emergence, 16 g ai/ha, scale 0-100, read-out: Plant response rating, Chickweed): 55% | pest or weed control at 31 g/ha ([1]; Stellaria media, post-emergence, 31 g ai/ha, scale 0 to 100 (0 no effect, 100 complete control), read-out: Plant response rating, Chickweed): 60% | pest or weed control at 62 g/ha ([1]; Stellaria media, post-emergence, 62 g ai/ha, scale 0 to 100 (0 no effect, 100 complete control), read-out: Plant response rating, Chickweed): 65% | pest or weed control at 125 g/ha ([1]; Stellaria media, post-emergence, 125 g ai/ha, scale 0 to 100 (0 no effect, 100 complete control), read-out: Plant response rating, Chickweed): 75% | pest or weed control at 16 g/ha ([2]; Avena fatua, post-emergence, 16 g ai/ha, scale 0-100, read-out: Plant response rating, Oat, Wild): 20% | pest or weed control at 31 g/ha ([2]; Avena fatua, post-emergence, 31 g ai/ha, scale 0 to 100 (0 no effect, 100 complete control), read-out: Plant response rating, Oat, Wild): 25% | pest or weed control at 62 g/ha ([2]; Avena fatua, post-emergence, 62 g ai/ha, scale 0 to 100 (0 no effect, 100 complete control), read-out: Plant response rating, Oat, Wild): 25% | pest or weed control at 125 g/ha ([2]; Avena fatua, post-emergence, 125 g ai/ha, scale 0 to 100 (0 no effect, 100 complete control), read-out: Plant response rating, Oat, Wild): 25% | pest or weed control at 16 g/ha ([3]; Fallopia convolvulus, pre-emergence, 16 g ai/ha, scale 0 (no effect) to 100 (complete control), read-out: Plant response rating, Buckwheat, Wild): 15% | pest or weed control at 31 g/ha ([3]; Fallopia convolvulus, pre-emergence, 31 g ai/ha, scale 0-100, read-out: Plant response rating, Buckwheat, Wild): 55% | pest or weed control at 62 g/ha ([3]; Fallopia convolvulus, pre-emergence, 62 g ai/ha, scale 0-100, read-out: Plant response rating, Buckwheat, Wild): 100% | pest or weed control at 125 g/ha ([3]; Fallopia convolvulus, pre-emergence, 125 g ai/ha, scale 0-100, read-out: Plant response rating, Buckwheat, Wild): 100% | pest or weed control at 16 g/ha ([4]; Stellaria media, pre-emergence, 16 g ai/ha, scale 0 (no effect) to 100 (complete control), read-out: Plant response rating, Chickweed): 0% | pest or weed control at 31 g/ha ([4]; Stellaria media, pre-emergence, 31 g ai/ha, scale 0-100, read-out: Plant response rating, Chickweed): 50% | pest or weed control at 62 g/ha ([4]; Stellaria media, pre-emergence, 62 g ai/ha, scale 0-100, read-out: Plant response rating, Chickweed): 85% | pest or weed control at 125 g/ha ([4]; Stellaria media, pre-emergence, 125 g ai/ha, scale 0-100, read-out: Plant response rating, Chickweed): 90% | pest or weed control at 16 g/ha ([5]; Amaranthus retroflexus, pre-emergence, 16 g ai/ha, scale 0 (no effect) to 100 (complete control), read-out: Plant response rating, Pigweed): 75% | pest or weed control at 31 g/ha ([5]; Amaranthus retroflexus, pre-emergence, 31 g ai/ha, scale 0 (no effect) to 100 (complete control), read-out: Plant response rating, Pigweed): 100% | pest or weed control at 62 g/ha ([5]; Amaranthus retroflexus, pre-emergence, 62 g ai/ha, scale 0-100, read-out: Plant response rating, Pigweed): 100% | pest or weed control at 125 g/ha ([5]; Amaranthus retroflexus, pre-emergence, 125 g ai/ha, scale 0-100, read-out: Plant response rating, Pigweed): 100% | plant injury at 16 g/ha ([6]; Hordeum vulgare, post-emergence, 16 g ai/ha, read-out: Plant response rating, Barley, Winter): 0% | plant injury at 31 g/ha ([6]; Hordeum vulgare, post-emergence, 31 g ai/ha, read-out: Plant response rating, Barley, Winter): 0% | plant injury at 62 g/ha ([6]; Hordeum vulgare, post-emergence, 62 g ai/ha, read-out: Plant response rating, Barley, Winter): 5% | plant injury at 125 g/ha ([6]; Hordeum vulgare, post-emergence, 125 g ai/ha, read-out: Plant response rating, Barley, Winter): 10% | plant injury at 16 g/ha ([7]; Hordeum vulgare, post-emergence, 16 g ai/ha, read-out: Plant response rating, Barley, Spring): 0% | plant injury at 31 g/ha ([7]; Hordeum vulgare, post-emergence, 31 g ai/ha, read-out: Plant response rating, Barley, Spring): 5% | plant injury at 62 g/ha ([7]; Hordeum vulgare, post-emergence, 62 g ai/ha, read-out: Plant response rating, Barley, Spring): 5% | plant injury at 125 g/ha ([7]; Hordeum vulgare, post-emergence, 125 g ai/ha, read-out: Plant response rating, Barley, Spring): 10% | pest or weed control at 16 g/ha ([10]; Papaver rhoeas, pre-emergence, 16 g ai/ha, scale 0 (no effect) to 100 (complete control), read-out: Plant response rating, Field Poppy): 20% | pest or weed control at 31 g/ha ([10]; Papaver rhoeas, pre-emergence, 31 g ai/ha, scale 0-100, read-out: Plant response rating, Field Poppy): 70% | pest or weed control at 62 g/ha ([10]; Papaver rhoeas, pre-emergence, 62 g ai/ha, scale 0-100, read-out: Plant response rating, Field Poppy): 85% | pest or weed control at 125 g/ha ([10]; Papaver rhoeas, pre-emergence, 125 g ai/ha, scale 0-100, read-out: Plant response rating, Field Poppy): 85%
